According to patent US10961200B2, “Small molecule inhibitors of lactate dehydrogenase and methods of use thereof” (THE UNITED STATES OF AMERICA, AS REPRESENTED BY THE …, priority 2014, dated 2021):
Counter-ions that a name gives are not always drawn. Like-named read-outs stand apart in the source and are kept apart here.

Experiments:
Human LDHA = Human LDHA (Homo sapiens (Human), UniProt P00338); assay: human LDHA primary biochemical assay (resazurin/diaphorase coupled, fluorescence)
From the text: Test compounds were placed in a Greiner Bio-One (Monroe, N.C.) 1536-well black solid bottom assay plate. 200 millimolar (mM) Tris HCl, pH 7.4, 100 micromolar […] EDTA and 0.01% TWEEN-20™, final concentration, was used as the assay buffer. The LDHA reagent was 2 nanomolar (nM) Human LDHA (Meridian Life Science, Inc., Memphis, Tenn.), final concentration, in assay buffer.

MiaPaCa2 cells = assay: cell-based HT lactate assay, colorimetric/fluorometric detection (inhibition of lactate production); conditions: class symbols, 0 to 3 pluses
Protocol: Cell-based HT Lactate assay is a miniaturized Biovision Lactate Colorimetric/Fluorometric Assay Kit (Cat #K607-100). The assay is roughly a 3.5 hour assay run in a 1536 plate format. Cell number optimization should be run for each cell line to achieve an optimal number in which lactate production equals roughly 90% of the standard curve range. Cell number per well optimization has been performed with the following cell lines: MiaPaCa2—500 cells/well, SNU398—500 cells/well, and P493—500 cells/well.
The lactate activity in Table 8 is represented by 0 to 3 pluses as follows: +++<1 μM; ++1-10 μM; +10-57 μM; and −>57 μM.

[1] = LDHA inhibitory activity, assay of Example 1, activity level classes
[2] = read-out: Inhibitory activity IC50

Row | SMILES | IC50 (Human LDHA; [1]) [nM] | IC50 (MiaPaCa2 cells; Homo sapiens, MIA PaCa-2) [nM] | IC50 (Human LDHA; [2]) [nM] | IC50 (MiaPaCa2 cells) [nM]
1 | NS(=O)(=O)c1ccc(Cc2c(-c3cccc(-c4ccccc4)c3)nn(-c3nc(C(=O)O)cs3)c2CC2CC2(F)F)cc1 (stereo not shown) [Compound 207, 2-(3-([1,1′-biphenyl]-3-yl)-5-((2,2-difluorocyclopropyl)methyl)-4-(4-sulfamoylbenzyl)-1H-pyrazol-1-yl)thiazole-4-carboxylic acid] | < 100 | 1000 to 10000 |  | 
2 | Cn1c(C(=O)O)cnc1-n1cc(Cc2ccc(S(N)(=O)=O)cc2)c(-c2ccccc2)n1 [Compound 212, 1-methyl-2-(3-phenyl-4-(4-sulfamoylbenzyl)-1H-pyrazol-1-yl)-1H-imidazole-5-carboxylic acid] | > 57000 | > 57000 |  | 
3 | NS(=O)(=O)c1ccc(Cc2cn(-c3cc(C(=O)O)cs3)nc2-c2ccccc2)cc1 [Compound 213, 5-(3-phenyl-4-(4-sulfamoylbenzyl)-1H-pyrazol-1-yl)thiophene-3-carboxylic acid] |  | > 57000 | 1000 to 57000 | 
4 | Cn1cc(-c2cc(-c3nn(-c4nc(C(=O)O)cs4)c(CC4CC4)c3Cc3ccc(S(N)(=O)=O)cc3F)ccc2F)cn1 [Compound 214, 2-(5-(cyclopropylmethyl)-3-(4-fluoro-3-(1-methyl-1H-pyrazol-4-yl)phenyl)-4-(2-fluoro-4-sulfamoylbenzyl)-1H-pyrazol-1-yl)thiazole-4-carboxylic acid] |  | 1000 to 10000 | < 100 | 
5 | Cc1noc(C)c1-c1cc(-c2nn(-c3nc(C(=O)O)cs3)c(CC3CC3)c2Cc2ccc(S(N)(=O)=O)cc2F)ccc1F [Compound 215, 2-(5-(cyclopropylmethyl)-3-(3-(3,5-dimethylisoxazol-4-yl)-4-fluorophenyl)-4-(2-fluoro-4-sulfamoylbenzyl)-1H-pyrazol-1-yl)thiazole-4-carboxylic acid] |  | 10000 to 57000 | < 100 | 
6 | Cn1cc(-c2cc(-c3nn(-c4nc(C(=O)O)cs4)c(CC4CC4)c3Cc3ccc(S(N)(=O)=O)c(F)c3)ccc2F)cn1 [Compound 217, 2-(5-(cyclopropylmethyl)-3-(4-fluoro-3-(1-methyl-1H-pyrazol-4-yl)phenyl)-4-(3-fluoro-4-sulfamoylbenzyl)-1H-pyrazol-1-yl)thiazole-4-carboxylic acid] |  | 1000 to 10000 | < 100 | 
7 | Cc1noc(C)c1-c1cc(-c2nn(-c3nc(C(=O)O)cs3)c(CC3CC3)c2Cc2ccc(S(N)(=O)=O)c(F)c2)ccc1F [Compound 219, 2-(5-(cyclopropylmethyl)-3-(3-(3,5-dimethylisoxazol-4-yl)-4-fluorophenyl)-4-(3-fluoro-4-sulfamoylbenzyl)-1H-pyrazol-1-yl)thiazole-4-carboxylic acid] |  | 1000 to 10000 | < 100 | 
8 | Cc1csc(-c2cc(-c3nn(-c4nc(C(=O)O)cs4)c(CC4CC4)c3Cc3ccc(S(N)(=O)=O)cc3F)ccc2F)c1 [Compound 221, 2-(5-(cyclopropylmethyl)-3-(4-fluoro-3-(4-methylthiophen-2-yl)phenyl)-4-(2-fluoro-4-sulfamoylbenzyl)-1H-pyrazol-1-yl)thiazole-4-carboxylic acid] |  | < 1000 | < 100 | 
9 | Cc1csc(-c2cc(-c3nn(-c4nc(C(=O)O)cs4)c(CC4CC4)c3Cc3ccc(S(N)(=O)=O)c(F)c3)ccc2F)c1 [Compound 223, 2-(5-(cyclopropylmethyl)-3-(4-fluoro-3-(4-methylthiophen-2-yl)phenyl)-4-(3-fluoro-4-sulfamoylbenzyl)-1H-pyrazol-1-yl)thiazole-4-carboxylic acid] |  | < 1000 | < 100 | 
10 | Cc1ccc(-c2cc(-c3nn(-c4nc(C(=O)O)cs4)c(CC4CC4)c3Cc3ccc(S(N)(=O)=O)c(F)c3)ccc2F)s1 [Compound 227, 2-(5-(cyclopropylmethyl)-3-(4-fluoro-3-(5-methylthiophen-2-yl)phenyl)-4-(3-fluoro-4-sulfamoylbenzyl)-1H-pyrazol-1-yl)thiazole-4-carboxylic acid] |  | < 1000 | < 100 | 
11 | CCOC(=O)c1csc(-n2nc(-c3ccc(F)c(-c4ccc(C)s4)c3)c(Cc3ccc(S(N)(=O)=O)c(F)c3)c2CC2CC2)n1 [Compound 229, ethyl 2-(5-(cyclopropylmethyl)-3-(4-fluoro-3-(5-methylthiophen-2-yl)phenyl)-4-(3-fluoro-4-sulfamoylbenzyl)-1H-pyrazol-1-yl)thiazole-4-carboxylate] |  | > 57000 | > 57000 | 
12 | Cc1ccc(-c2cc(-c3nn(-c4nc(C(=O)O)cs4)c(CC4CC4)c3Cc3ccc(S(N)(=O)=O)c(F)c3)ccc2F)o1 [Compound 230, 2-(5-(cyclopropylmethyl)-3-(4-fluoro-3-(5-methylfuran-2-yl)phenyl)-4-(3-fluoro-4-sulfamoylbenzyl)-1H-pyrazol-1-yl)thiazole-4-carboxylic acid] |  | < 1000 | < 100 | 
13 | Cc1cnc(-c2cc(-c3nn(-c4nc(C(=O)O)cs4)c(CC4CC4)c3Cc3ccc(S(N)(=O)=O)c(F)c3)ccc2F)s1 [Compound 231, 2-(5-(cyclopropylmethyl)-3-(4-fluoro-3-(5-methylthiazol-2-yl)phenyl)-4-(3-fluoro-4-sulfamoylbenzyl)-1H-pyrazol-1-yl)thiazole-4-carboxylic acid, TFA] |  | < 1000 | < 100 | 
14 | Cc1ncc(-c2cc(-c3nn(-c4nc(C(=O)O)cs4)c(CC4CC4)c3Cc3ccc(S(N)(=O)=O)c(F)c3)ccc2F)s1 [Compound 232, 2-(5-(cyclopropylmethyl)-3-(4-fluoro-3-(2-methylthiazol-5-yl)phenyl)-4-(3-fluoro-4-sulfamoylbenzyl)-1H-pyrazol-1-yl)thiazole-4-carboxylic acid] |  | < 1000 | < 100 | 
15 | Cc1ccc(-c2cc(-c3nn(-c4nc(C(=O)O)cs4)c(CC4CC4)c3Cc3ccc(S(N)(=O)=O)cc3F)ccc2F)s1 [Compound 233, 2-(5-(cyclopropylmethyl)-3-(4-fluoro-3-(5-methylthiophen-2-yl)phenyl)-4-(2-fluoro-4-sulfamoylbenzyl)-1H-pyrazol-1-yl)thiazole-4-carboxylic acid] |  | < 1000 | < 100 | 
16 | NS(=O)(=O)c1ccc(Cc2c(-c3ccc(F)c(-c4cccs4)c3)nn(-c3nc(C(=O)O)cs3)c2CC2CC2)cc1F [Compound 234, 2-(5-(cyclopropylmethyl)-3-(4-fluoro-3-(thiophen-2-yl)phenyl)-4-(3-fluoro-4-sulfamoylbenzyl)-1H-pyrazol-1-yl)thiazole-4-carboxylic acid, TFA] |  | < 1000 | < 100 | 

Row | SMILES | IC50 (Human LDHA; [1]) [nM] | IC50 (MiaPaCa2 cells; Homo sapiens, MIA PaCa-2) [nM] | IC50 (Human LDHA; [2]) [nM] | IC50 (MiaPaCa2 cells) [nM]
17 | COc1cccc(-c2cc(-c3nn(-c4nc(C(=O)O)cs4)c(CC4CC4)c3Cc3ccc(S(N)(=O)=O)cc3)ccc2F)c1 [Compound 237] | < 100 |  |  | 1000 to 10000
18 | NS(=O)(=O)c1ccc(Cc2c(-c3ccc(F)c(-c4cccc(F)c4)c3)nn(-c3nc(C(=O)O)cs3)c2CC2CC2)cc1 [Compound 239] | < 100 |  |  | < 1000
19 | NS(=O)(=O)c1ccc(Cc2c(-c3ccc(F)c(-c4cccc(F)c4)c3)nn(-c3nc(C(=O)O)cs3)c2C2CC2)cc1F [Compound 251] | < 100 |  |  | 1000 to 10000
20 | COc1cccc(-c2cc(-c3nn(-c4nc(C(=O)O)cs4)c(C4CC4)c3Cc3ccc(S(N)(=O)=O)c(F)c3)ccc2F)c1 [Compound 252] | < 100 |  |  | 1000 to 10000
21 | NS(=O)(=O)c1ccc(Cc2c(-c3ccc(F)c(-c4ccccc4)c3)nn(-c3nc(C(=O)O)cs3)c2CC2CC2)cc1 [Compound 257] | < 100 |  |  | < 1000
22 | NS(=O)(=O)c1ccc(Cc2c(-c3ccc(F)c(C#CC4CCCC4)c3)nn(-c3nc(C(=O)O)cs3)c2CC2CC2)cc1F [Compound 258] | < 100 |  |  | < 1000
23 | CN1CC=C(c2cc(-c3nn(-c4nc(C(=O)O)cs4)c(CC4CC4)c3Cc3ccc(S(N)(=O)=O)c(F)c3)ccc2F)CC1 [Compound 259] | < 100 |  |  | 10000 to 57000
24 | NS(=O)(=O)c1ccc(Cc2c(-c3ccc(F)c(C#CC4CCNCC4)c3)nn(-c3nc(C(=O)O)cs3)c2CC2CC2)cc1F [Compound 261] | < 100 |  |  | 1000 to 10000
25 | NS(=O)(=O)c1ccc(Cc2c(-c3ccc(F)c(C#CCN4CCOCC4)c3)nn(-c3nc(C(=O)O)cs3)c2CC2CC2)cc1F [Compound 263] | < 100 |  |  | 10000 to 57000
26 | C=C(C)C#Cc1cc(-c2nn(-c3nc(C(=O)O)cs3)c(CC3CC3)c2Cc2ccc(S(N)(=O)=O)c(F)c2)ccc1F [Compound 264] | < 100 |  |  | < 1000
27 | CC(C)(O)C#Cc1cc(-c2nn(-c3nc(C(=O)O)cs3)c(CC3CC3)c2Cc2ccc(S(N)(=O)=O)c(F)c2)ccc1F [Compound 265] | < 100 |  |  | 1000 to 10000
28 | CCOC(=O)c1csc(-n2nc(-c3cccc(-c4ccc(C)cc4)c3)c(Cc3ccc(S(N)(=O)=O)c(F)c3)c2CC2CC2)n1 [Compound 266] | 1000 to 57000 |  |  | > 57000
29 | NS(=O)(=O)c1ccc(Cc2c(-c3cccc(N4CCOCC4)c3)nn(-c3ncc(C(=O)O)s3)c2CC2CC2)cc1F [Compound 267] | < 100 |  |  | 10000 to 57000
30 | CCOC(=O)c1csc(-n2nc(-c3ccc(F)c(C#CC4CCCC4)c3)c(Cc3ccc(S(N)(=O)=O)c(F)c3)c2CC2CC2)n1 [Compound 268] | > 57000 |  |  | > 57000
31 | CC#Cc1cccc(-c2nn(-c3ncc(C(=O)OCC)s3)c(CC3CC3)c2Cc2ccc(S(N)(=O)=O)c(F)c2)c1 [Compound 269] | 1000 to 57000 |  |  | < 1000
32 | Cc1ccc(-c2cccc(-c3nn(-c4nc(C(=O)O)cs4)c(CC4CC4)c3Cc3ccc(S(N)(=O)=O)cc3)c2)cc1 [Compound 281] | < 100 |  |  | < 1000
